Assay results: US20090286816A1, “MODULATORS OF METABOLISM AND THE TREATMENT OF DISORDERS RELATED THERETO” (ARENA PHARMACEUTICALS, INC., priority 2006, published 2009)
pEC50: −log10 of the molar value. Where two headings read alike, the source gives them in different places.

Key:
[1] = Rat dose-range PK study (dose escalation pharmacokinetics); type: in vivo; settings: for AUC(0-t): male, SD, plasma, PO, read-out: AUC24 hr
Experimental: Male SD rats (250-300 g) were purchased from Charles River Laboratory; upon receipt, animals were placed under light-dark cycle (6:30 am-6:30 pm lights on). They were allowed ad libitum access to water and 4 pieces of food daily (Purina Meals Rodent Diet, Product Number 5001).
Compound formulations were prepared as following: The IV injection formulation was prepared in 20% hydroxypropyl-beta-cyclodextrin with concentration of 0.667 mg/mL. […] The dosing volume for IV injection was 3 mL/Kg and for PO administration was 10 mL/Kg. Four rats were used for each dose group. […]
All rats (4 rats per group, housed individually) were fasted overnight prior to in-life phase. On the next morning, rats were received an IV (via tail vein injection) injection or gavage dose of compound starting at 8 am (IV) and 9 am (PO). Next, each rat were orbital bled at 0.085, 0.25, 0.5, 1, 2, 4, 6, 8, and 24 hr (IV) or 0.5, 1, 2, 4, 6, 8, and 24 hr (PO) to collect blood samples for PK analysis.
The blood samples were collected via orbital bleeding into tubes containing EDTA, 0.25 mL blood each time. These samples were put on ice and within 2 hours plasma was prepared by centrifugation at 3,000 rpm for 30 min at 4° C. 100 μl of plasma were transferred into a 96-tube box for PK analysis.
Plasma samples were prepared as follows. Two hundred microliters of acetonitrile containing internal standard was added to 100 μL of plasma to precipitate proteins. Samples were centrifuged at 3000 g for 5 minutes and supernatant removed for analysis by LC-MS-MS. Calibration standards and quality control samples were prepared by adding a known volume of standard stock solution (50% methanol, 50% H2O) directly into blank plasma and treated identically to collected plasma samples. Calibration standards were typically prepared in the range of 2.0 ng/mL to 110 μg/mL with linear regression for quantitation. These sample preparation steps were automated using a liquid handling workstation (Tomtec Quadra 96) in the 96-well format. Reversed phase LC-MS-MS analysis was performed using either multiple reaction or selected ion monitoring for detection of characteristic ions for each drug candidate and the internal standard used was propranolol for positive ions or chloramphenicol for negative ions.
Results were calculated by noncompartmental analysis using WinNonlin Pro version 3.1 based on plasma concentration-time profiles for individual animals. Plasma levels were determined as described above and the oral and intravenous area under the concentration vs. time curve (AUC was calculated using the linear trapezoidal rule up to the last measurable concentration and was then extrapolated to infinity) were compared to determine the % bioavailability (% F) by the following formula: Dose (IV)*AUC (oral)/Dose (oral)*AUC (IV).
There may be significant variation within the individual animals and the analytical method and that variation was evidenced by the % CV. AUMC was the first statistical moment of the AUC and was used to calculate the mean residence time (MRT=AUMC/AUC), which was the average time the compound was in the animal. The Cmax represented the maximum concentration observed, the Tmax was the time to reach that maximum concentration and the T1/2 was the calculated terminal half-life of the compound in plasma using the slope of a log concentration vs time plot if there were sufficient elimination phase data points (at least three data points in the terminal phase excluding the Cmax). Systemic clearance (CL=Dose(IV)/AUC(IV)) was the volume of fluid (containing compound) from which compound was removed completely per unit time. Volume of distribution at steady state (Vss=CL*MRT) was the extent of distribution of a drug from the plasma to the tissues at steady state.

[2] = tested on: Male Sprague Dawley rats; assay: Oral glucose tolerance test (oGTT) in rats; type: in vivo, rat; settings: fasted male SD rats, p.o. 30 min before dextrose 3 g/kg, mean of six animals, dose of the group not stated (0.3, 3 or 30 mg/kg tested)
Experimental: Male Sprague Dawley rats (Harlan, San Diego, Calif.) weighing approximately 350-375 g were fasted for 16 hours and randomly grouped (n=6) to receive a RUP3 agonist at 0.3, 3 or 30 mg/kg. Compounds were delivered orally via a gavage needle (p.o., volume 2 mL/kg). At time 0, levels of blood glucose were assessed using a glucometer (Accu-Chek Advantage, Roche Diagnostics), and rats were administered either vehicle (20% hydroxypropyl-beta-cyclodextrin) or test compound. Thirty minutes after administration of test compound, levels of blood glucose were again assessed, and rats were administered dextrose orally at a dose of 3 g/kg. Blood glucose measurements were then taken 30 min, 60 min, and 120 min after this time.

[3] = biological target: T1, RUP3 receptor (Homo sapiens, UniProt Q8TDV5); assay: RUP3 dose response in melanophores (human receptor); type: cell-based
T1 construct: expressed in transfected cells; host or cells: melanophores (cultured per Potenza and Lerner 1992), electroporated
T1 sequence (Q8TDV5 1-335): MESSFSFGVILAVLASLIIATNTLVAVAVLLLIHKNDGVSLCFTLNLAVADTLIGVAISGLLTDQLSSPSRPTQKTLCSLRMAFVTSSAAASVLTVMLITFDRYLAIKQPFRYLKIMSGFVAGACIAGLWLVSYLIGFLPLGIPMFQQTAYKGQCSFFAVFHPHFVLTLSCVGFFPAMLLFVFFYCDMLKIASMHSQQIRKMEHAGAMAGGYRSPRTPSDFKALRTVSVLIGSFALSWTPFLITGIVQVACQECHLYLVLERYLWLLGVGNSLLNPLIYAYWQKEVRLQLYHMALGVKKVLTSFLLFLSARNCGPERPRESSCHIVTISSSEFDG
Experimental: (§1) Melanophores are maintained in culture as reported by Potenza, M. N. and Lerner, M. R., in Pigment Cell Research, Vol. 5, 372-378, 1992 and transfected with the RUP3 expression vector (pCMV) using electroporation. Following electroporation, the transfected cells are plated into 96 well plates for the assay. The cells are then allowed to grow for 48 hours in order to both recover from the electroporation procedure and attain maximal receptor expression levels. On the assay day, the growth medium on the cells is replaced with serum-free buffer containing 10 nM melatonin. The melatonin acts via an endogenous Gi-coupled GPCR in the melanophores to lower intracellular cAMP levels. In response to lowered cAMP levels, the melanophores translocate their pigment to the center of the cell. The net effect of this is a significant decrease in the absorbance reading of the cell monolayer in the well, measured at […]. After a 1-hour incubation in melatonin, the cells become completely pigment-aggregated. At this point a baseline absorbance reading is collected. Serial dilutions of test compounds are then added to the plate and compounds that stimulate RUP3 produce increases in intracellular cAMP levels. […] The measured increase in absorbance compared to the baseline reading allows one to quantitate the degree of receptor stimulation and plot a dose-response curve.

[4] = biological target: T2, RUP3 receptor (Canis lupus familiaris, UniProt A0A8I3QZL6); assay: RUP3 dose response in melanophores (dog receptor); type: cell-based
T2 sequence (A0A8I3QZL6 1-335): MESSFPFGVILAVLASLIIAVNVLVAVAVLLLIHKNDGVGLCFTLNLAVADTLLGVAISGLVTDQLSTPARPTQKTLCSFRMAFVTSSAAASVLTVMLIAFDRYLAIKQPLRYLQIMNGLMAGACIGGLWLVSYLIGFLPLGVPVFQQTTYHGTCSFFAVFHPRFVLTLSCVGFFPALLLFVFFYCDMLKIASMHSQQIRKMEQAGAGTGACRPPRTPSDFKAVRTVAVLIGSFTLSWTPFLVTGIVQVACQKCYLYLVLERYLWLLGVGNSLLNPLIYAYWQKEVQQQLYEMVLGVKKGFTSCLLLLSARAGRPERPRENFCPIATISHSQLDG
Experimental: as §1

[5] = biological target: T3, RUP3 receptor (Mus musculus, UniProt Q7TQP3); assay: RUP3 dose response in melanophores (mouse receptor); type: cell-based
T3 construct: expressed in transfected cells; host or cells: melanophores (cultured per Potenza and Lerner 1992), electroporated
T3 sequence (Q7TQP3 1-335): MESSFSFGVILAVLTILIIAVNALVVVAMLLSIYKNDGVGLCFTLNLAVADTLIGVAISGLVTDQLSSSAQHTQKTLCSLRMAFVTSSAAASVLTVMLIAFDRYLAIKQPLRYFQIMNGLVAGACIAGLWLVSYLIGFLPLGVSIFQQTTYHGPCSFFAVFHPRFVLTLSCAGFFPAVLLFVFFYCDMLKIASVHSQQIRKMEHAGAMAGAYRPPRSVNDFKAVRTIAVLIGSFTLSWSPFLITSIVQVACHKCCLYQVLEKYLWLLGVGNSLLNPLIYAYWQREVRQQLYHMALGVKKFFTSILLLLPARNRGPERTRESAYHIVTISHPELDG
Experimental: as §1

[6] = biological target: T4, RUP3 receptor (Rattus norvegicus, UniProt Q7TQN8); assay: RUP3 dose response in melanophores (rat receptor); type: cell-based
T4 construct: expressed in transfected cells; host or cells: melanophores (cultured per Potenza and Lerner 1992), electroporated
T4 sequence (Q7TQN8 1-468): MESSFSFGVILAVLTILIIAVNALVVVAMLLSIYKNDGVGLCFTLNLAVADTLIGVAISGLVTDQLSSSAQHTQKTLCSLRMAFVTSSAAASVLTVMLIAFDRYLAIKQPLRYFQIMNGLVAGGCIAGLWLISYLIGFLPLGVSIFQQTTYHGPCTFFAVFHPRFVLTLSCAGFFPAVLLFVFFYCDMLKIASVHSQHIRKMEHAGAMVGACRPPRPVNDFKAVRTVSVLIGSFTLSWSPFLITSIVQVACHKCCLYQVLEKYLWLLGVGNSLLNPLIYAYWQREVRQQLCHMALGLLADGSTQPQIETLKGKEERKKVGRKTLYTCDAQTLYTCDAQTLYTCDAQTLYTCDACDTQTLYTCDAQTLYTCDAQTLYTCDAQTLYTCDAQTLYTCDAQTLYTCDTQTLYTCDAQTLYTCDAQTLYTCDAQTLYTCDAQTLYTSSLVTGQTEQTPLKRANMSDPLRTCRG
Experimental: as §1

Compound | AUC(0-t) ([1]; dose 30 mg) [ng·h/mL] | AUC(0-t) ([1]; dose 300 mg) [ng·h/mL] | AUC(0-t) ([1]; dose 3 mg) [ng·h/mL] | further results
CC(C)OC(=O)N1CCC(Oc2ncnc3c2cnn3-c2ccc(S(C)(=O)=O)cc2F)CC1 [Compound A, 4-[1-(2-Fluoro-4-methanesulfonyl-phenyl)-1H-pyrazolo[3,4-d]pyrimidin-4-yloxy]-piperidine-1-carboxylic acid isopropyl ester] | 9930 | 97000 |  | AUC(0-t) ([1]; dose 10 mg): 2590 ng·h/mL; AUC(0-t) ([1]; dose 100 mg): 133000 ng·h/mL; AUC(0-t) ([1]; dose 1000 mg): 377000 ng·h/mL
Cc1c(Nc2ccc(S(C)(=O)=O)cc2F)ncnc1OC1CCN(c2nc(C(C)C)no2)CC1 [Compound B, (2-Fluoro-4-methanesulfonyl-phenyl)-{6-[1-(3-isopropyl-[1,2,4]oxadiazol-5-yl)-piperidin-4-yloxy]-5-methyl-pyrimidin-4-yl}-amine] | 5990 | 11000 | 2120 | 
COc1c(Nc2ccc(S(C)(=O)=O)nc2C)ncnc1OC1CCN(C(=O)OC(C)C)CC1 [Compound C, 4-[6-(6-Methanesulfonyl-2-methyl-pyridin-3-ylamino)-5-methoxy-pyrimidin-4-yloxy]-piperidine-1-carboxylic acid isopropyl ester] | 65900 | 419000 | 14900 | 
COc1c(Nc2cnc(S(C)(=O)=O)cc2C)ncnc1OC1CCN(C(=O)OC(C)C)CC1 [Compound D, 4-[6-(6-Methanesulfonyl-4-methyl-pyridin-3-ylamino)-5-methoxypyrimidin-4-yloxy]-piperidine-1-carboxylic acid isopropyl ester] | 29400 | 54700 | 5600 | 
Cc1nc(S(C)(=O)=O)ccc1Nc1ncnc(OC2CCN(C(=O)OC(C)C)CC2)c1C [Compound E, 4-[6-(6-methanesulfonyl-2-methyl-pyridin-3-ylamino)-5-methyl-pyrimidin-4-yloxy]-piperidine-1-carboxylic acid isopropyl ester] | 55900 | 515000 | 4730 | 
COc1c(Nc2ccc(S(C)(=O)=O)nc2C)ncnc1OC1CCN(c2nc(C(C)C)no2)CC1 [Compound G, {6-[1-(3-Isopropyl-[1,2,4]oxadiazol-5-yl)-piperidin-4-yloxy]-5-methoxy-pyrimidin-4-yl}-(6-methanesulfonyl-2-methyl-pyridin-3-yl)-amine] | 6470 | 33800 | 1660 | 
COc1c(Nc2ccc(-n3cncn3)nc2C)ncnc1OC1CCN(C(=O)OC(C)C)CC1 [Compound of Formula (I), 4-[5-Methoxy-6-(2-methyl-6-[1,2,4]triazol-1-yl-pyridin-3-ylamino)-pyrimidin-4-yloxy]-piperidine-1-carboxylic acid isopropyl ester] | 79800 | 286000 | 3590 | mean percent inhibition of glucose excursion [2]: 60%; pEC50 [3]: 8.70; pEC50 [4]: 8.40; pEC50 [5]: 7.24; pEC50 [6]: 7.09; dose escalation pharmacokinetics (AUC vs dose) ([1]; PO 3, 30, 300 mg/Kg, FIG. 1): essentially linear
